What was measured:
[1] = tested on: Candida albicans (DSMZ#1386); assay: Minimum Inhibitory Concentration (MIC) test and synergy index (Kull method), TSB pH 5; format: cell-based; conditions: DSM 1386 / DSMZ1386, Candida albicans DSM# 1386, 30° C., 72 hours, read-out: MIC results for single biocides
Method: (§1) The synergism of the biocides combination of the present invention was determined using the Minimum Inhibitory (MIC) test method described by Kull, F. C., et. al in Applied Microbiology 9:538-541 (1961). The formula to calculate the synergy index (SI) is SI=Qa/QA+Qb/QB Where • QA=minimum inhibitory concentration in ppm of compound A acting alone • Qa=minimum inhibitory concentration in ppm of compound A in the mixture. • QB=minimum inhibitory concentration in ppm of compound B acting alone. • Qb=minimum inhibitory concentration in ppm of compound B in the mixture. […] The Minimum Inhibitory Concentration Test (MIC) is designed to evaluate the lowest concentration of a biocide, biocide blend or biocide combination to prevent bacteria growing in a defined broth. […] The synergy testing was carried out as follows: • 1. The test was executed with a Hamilton MLStarPlus robot using automated turbidity reading with BioTek Synergy H4 plate reader. • 2. […] Reading of the results was carried out by measuring absorbance at 600 nm for each sample at the beginning of the test (tzero) and after incubation (tendpoint). tendpoint was chosen at 48 hours for bacteria and 72 hours for yeast. The difference in absorbance between tendpoint and tzero was used to determine growth (Δ>0.2) or no growth (Δ≤0.2).

[2] = tested on: Pseudomonas aeruginosa (DSMZ#939); assay: as above; format: cell-based; conditions: DSM 939 / DSMZ939, Pseudomonas aeruginosa DSM# 939, 30° C., 48 hours, read-out: MIC results for single biocides
Method: as §1

CCCCCCCCCCCCN(CCCN)CCCN [BDA, bis-(3-aminopropyl)dodecylamine]
MIC [1]: ≥ 260 µg/mL
MIC [2]: 200 µg/mL

C/C=C/C=C/C(=O)O [SA, sorbic acid]
MIC [1]: 725 µg/mL
MIC [2]: 1230 µg/mL
